Assay results published in patent US11976274B2, “Methods and compositions for identifying neoantigens for use in treating and preventing cancer” (Arizona Board of Regents on Behalf of Arizona State …, priority 2019, dated 2024).

Key:
Type in all cases: in vivo
4T1 cells = assay: 4T1-BALB/c mouse breast tumor model, immunization and tumor challenge; conditions: for tumor retardation: gene vaccines, three immunizations, subcutaneous 2×10^3 4T1 cells, vs mock
Method: BALB/c and C57BL/6 mice were from Charles River Laboratories or Jackson Laboratories. […] Tumor volumes were measured and calculated by (Length^2×Width/2) daily after the size was larger than 1 mm^3. Breeding pairs of BALB-neuT and FVB-neuN (FVB/N-Tg (MMTVneu) 202Mul) mice were obtained from Joseph Lustgarten, Mayo Clinic Arizona. Mice were monitored weekly for the tumor incidence after tumor size reached 1 mm^3. All experiments were performed in accordance with protocols approved by the Institutional Animal Care and Use Committee of Arizona State University. Statistical significance of differences was analyzed by a Student t-test.
The DNA fragments encoding FS peptides were cloned as a C-terminal fusion into the genetic immunization vectors pCMVi-UB (26) and pCMVi-LSrCOMPTT (27, 28) with the Bgl II and Hind III and mixed with 1:1 ratio as the vaccine antigen. Three adjuvants were encoded by genetic immunization vectors. The pCMVi-mGM-CSF vector expresses the adjuvant mouse granulocyte/macrophage colony-stimulating factor (mGM-CSF) under control of the human cytomegalovirus (CMV) promoter (27). […]. Vectors pCMVi-UB, pCMVi-LSrCOMPTT, pCMVi-LTA (also called pCMVi-LS-LTA-R192G) and pCMVi-LTB are available from the PSI:Biology-Materials Repository DNASU (dnasu.org) at Arizona State University. Additional adjuvants were the class A CpG 2216 single-stranded oligodeoxynucleotide obtained from Sigma and alum from Pierce.
Bullets for biolistic genetic immunization used the gold micronanoplex approach and were prepared as described (30) with the following changes. Two grams of 1-micron gold was used. Prior to addition of N-hydroxysuccinimide and N-(3-dimethylaminopropyl)-N′-ethylcarbodiimide hydrochloride, the gold was resuspended in 20 mL of a 0.1 M solution of 2-(N-morpholino) ethanesulfonic acid (MES), pH 6.0. DNA-gold micronanoplexes were prepared by combining, per bullet, 57 μL of cysteamine-gold solution with precipitated DNA (≤10 μg) that had been resuspended in ≤15 μL of water, and then vortexing for 10 min. To the DNA-cysteamine-gold was added 6 μL/bullet of a freshly made solution of PEI-micron gold (167 mg/mL in 0.1 M MES, pH 6, without NaCl). The pelleted micronanoplexes were washed with ethanol prior to resuspension in n-butanol (55 μL/bullet), followed by bullet formation under nitrogen gas.
For the three MS FS experiments, all mice (n=10 per group) were genetically immunized in the ear by Gene Gun at 8 weeks of age (2 shots/mouse, 60 ng pooled antigens plus 0.25 μg LTAB and 2.5 μg CpG2216 as the adjuvant for each shot) and boosted twice (two days apart) in three weeks with 1 μg pooled antigens plus the same adjuvants dosage. All mice were boosted again in two weeks with 50 μg KLH conjugated MS FS peptides with 50 μg CpG 2216 and 50 ul alum in total 100 ul PBS. […]

[1] = test system: BALB-NeuT mouse breast tumor; assay: BALB-NeuT transgenic mouse mammary cancer model, tumor free curve; conditions: Mantal-Cox test
Method: BALB/c and C57BL/6 mice were from Charles River Laboratories or Jackson Laboratories. For the tumor challenge, 5×10^3 4T1 cells were injected in the mammary pad at the right flank of the mice, or 1×10^5 B16F10 cells were injected subcutaneously in the right flank of the mice. Tumor volumes were measured and calculated by (Length^2×Width/2) daily after the size was larger than 1 mm^3. Breeding pairs of BALB-neuT and FVB-neuN (FVB/N-Tg (MMTVneu) 202Mul) mice were obtained from Joseph Lustgarten, Mayo Clinic Arizona. Mice were monitored weekly for the tumor incidence after tumor size reached 1 mm^3. All experiments were performed in accordance with protocols approved by the Institutional Animal Care and Use Committee of Arizona State University. Statistical significance of differences was analyzed by a Student t-test.
Mice were genetically immunized by Gene Gun at 4-6 weeks with 100 ng of antigen(s) in pCMVi vectors, boosted twice (3-4 days apart) at 9-10 weeks with 1 μg of the same antigen(s), and boosted once at 13-14 weeks with protein. Genetic immunizations included adjuvants LTAB (0.5 μg) and CpG 2216 (5 μg). Protein boosts were 50 μg of KLH conjugated FS peptides (SMC1A-1^4, n=32; RBM FS, n=22; SLAIN2 FS, n=14 and pool of three FS neoantigens, n=37). The protein boost included 50 μg CpG 2216 and 50 μl alum in 100 μl PBS as the adjuvant. […]

B16-F10 cells = assay: B16F10-C57BL6 mouse melanoma tumor model, genetic immunization and tumor challenge; conditions: B16F10 melanoma in C57BL6, gene gun immunization, 1×10^5 cells, vs mock/control antigen CPV 172

AVLLMCQLYQPWMCKEYYRLL [ZDHHC17 FS]
tumor retardation (4T1 cells): did not

IPRMQPQASANHCQLLKVMVA [SLAIN2 FS]
p, tumor free curve, 3FS pool vs individual FS antigen group [1]: 0.43 | tumor retardation (4T1 cells): conferred tumor retardation

TAIIGPNGSGCSGVYCHEEPQGEDSSV [mSMC1A-1^4]
4T1 tumor growth (4T1 cells; BALB/c, gene gun plus KLH-peptide boost, 5×10^3 4T1 cells, vs empty vector/KLH): significantly retarded the 4T1 tumor growth | T-cell dependence of protection (4T1 cells; depletion of CD8 or CD4 T-cells in immunized BALB/c mice, 4T1): CD8 T cell dependent | tumor growth (B16-F10 cells): significant retardation of tumor growth
